Where “and” joins values, the source holds several entries; their conditions need not be identical. Identical values can stand only once. Like-named read-outs stand apart in the source and are kept apart here.
What was measured:
[1] = tested on: MRSA (G+) strain ATCC 43300; experiment: Antimicrobial growth inhibition (CO-ADD), MRSA; assay type: cell-based, Staphylococcus aureus; details: for MIC / inhibition at 32 µg/mL: Staphylococcus aureus; for MIC: ATCC 43300, MIC = concentration at which growth inhibited by ≥80%, range 0.25−32 µg/mL, read-out: MIC MRSA
Description: (§1) Compounds 1−3 and 5−12 were assayed against a selection of medically important pathogenic microorganisms (MRSA, E. coli, K. pneumoniae, A. baumanii, P. aeruginosa, C. albicans, C. neoformans), Table 4. […] To the best of our knowledge this compound had not been tested against any drug resistant strain of Gram-positive bacterium until this study.
(§2) The antimicrobial activity testing was performed by the Community for Antimicrobial Drug Discovery (CO-ADD). Compounds were assayed against a range of both Gram negative and Gram positive bacteria (see Supplementary Materials S3) including methicillin-resistant Staphylococcus aureus (MRSA) (G+), Escherichia coli (G-), Klebsiella pneumoniae (G-), Acinetobacter baumannii (G-), Pseudomonas aeruginosa (G-) together with two species of fungus (Candida albicans and Cryptococcus neoformans).
(§3) S3. Antimicrobial activity testing methodology
(§4) The compounds submitted to CO-ADD were evaluated in duplicate (n = 2) against seven microorganisms (five bacteria and two fungi) at a concentration of 32 µg/mL in a 384-well, non-binding surface plate (NBS) for each bacterial/fungal strain, keeping the final DMSO concentration to a maximum of 1% DMSO. All bacteria were cultured in cation-adjusted Mueller-Hinton broth (CAMHB) at 37 °C overnight. A sample of each culture was then diluted 40-fold in fresh broth and incubated at 37 °C for 1.5-3 h. The resultant mid-log phase cultures were diluted (CFU/mL measured by OD600), then added to each well of the compound containing plates, giving a cell density of 5x10^5 CFU/mL and a total volume of 50 µL. All the plates were covered and incubated at 37 °C for 18 h without shaking. […] Inhibition of bacterial growth was determined measuring absorbance at 600 nm (OD600) using a Tecan M1000 Pro mon-ochromator plate reader. […]
(§5) 2 h. The absorbance was measured using a Biotek Synergy HTX plate reader. The percentage of growth inhibition was calculated for each well, using negative control (medium only) and positive control (bacteria without inhibitors) on the same plate as the references. The significance of inhibition values was determined by modified Z-scores, calculated using the median and MAD of the samples (no controls) on the same plate. Samples with inhibition value above 80% and Z-score above 2.5 for either replicate (n = 2 on different plates) were classed as actives.
(§6) Colistin and vancomycin were used as positive bacterial inhibitor standards for Gram-negative and Gram-positive bac-teria, respectively. Fluconazole was used as a positive fungal inhibitor standard for C. albicans and C. neoformans. The antibiotics were provided in four concentrations, with two above and two below its MIC value, and plated into the first eight wells of column 23 of the 384-well NBS plates. The quality control (QC) of the assays was determined by the antimicrobial controls and the Z’-factor (using positive and negative controls). Each plate was deemed to fulfil the qual- […]
(§7) full growth inhibition at their highest concentration, and no growth inhibition at their lowest concentration. The seven […]
(§8) test microorganisms were Staphylococcus aureus MRSA (ATCC 43300), Escherichia coli (ATCC 25922), Klebsiella pneu-moniae (ATCC 700603), Acinetobacter baumanii (ATCC19606), Pseudomonas aeruginosa (ATCC 27853), Candida albicans (ATCC 90028) and Cryptococcus neoformans var. grubii (H99; ATCC 208821).
(§9) S4. Anthelmintic activity testing methodology
(§10) Dose-response evaluations were carried out to estimate the half-maximal inhibitory concentrations (IC50 values) for compounds against Haemonchus contortus (Haecon-5 strain) exsheathed third-stage larvae (xL3s). H. contortus were maintained in experimental sheep and procured in accordance with the institutional animal ethics guidelines and the regulations of Australia (permit no. 1714374; University of Melbourne). Immediately prior to use, third-stage larvae (L3s) were exsheathed and sterilised by incubation in 0.15% (v/v) bleach at 38 °C for 20 min, followed by washes in […]

[2] = tested on: A. baumannii (G-) strain ATCC 19606; experiment: Antimicrobial growth inhibition (CO-ADD), A. baumannii; assay type: cell-based, Acinetobacter baumannii; details: for % inhibition A. baumannii: 32 µg/mL; for MIC / inhibition at 32 µg/mL: Acinetobacter baumannii; for MIC: ATCC19606, ATCC 19606, read-out: MIC A. baumannii
Description: as §1, §2, §3, §4, §5, §6, §7, §8, §9, §10

[3] = tested on: P. auruginosa (G-) strain ATCC 27853; experiment: Antimicrobial growth inhibition (CO-ADD), P. aeruginosa; assay type: cell-based, Pseudomonas aeruginosa; details: for % inhibition P. aeruginosa: 32 µg/mL; for MIC / inhibition at 32 µg/mL: Pseudomonas aeruginosa; for MIC: ATCC27853, ATCC 27853, read-out: MIC P. aeruginosa
Description: as §1, §2, §3, §4, §5, §6, §7, §8, §9, §10

[4] = tested on: zebrafish (Danio rerio) larvae at 5 dpf; experiment: Zebrafish larvae spontaneous, unstimulated swimming bioassay; assay type: in vivo; details: for Spontaneous swimming, mean distance moved: 10 nM and 100 nM, compared with 1 nM
Description: (§11) For the zebrafish bioactivity assay, three experiments were performed on 5 days post fertilization (dpf) zebrafish larvae treated with methanol crude extracts from all four sponge specimens, using total distance moved as an endpoint metric. Spontaneous swimming experiments were performed according to the following protocol: allowing a 2 min acclimatization period in darkness followed by a 5 min darkness swimming period, where total distance moved was measured. Simulated predator response (SPR) experiments were performed involving a 2 min acclimatization period in light conditions, followed by 3 min in light free swimming and a measurement period of 3 mins in dark. Finally, a Larval Photo-motor Response (LPR) experiment was conducted beginning with 2 mins light acclimatization followed by three cycles of alternating photic stimulus (each cycle consisting of 4 min light –4 min dark conditions to assess the profile of the treatment across time, Figure 8.
(§12) Basal behavioral analysis was conducted on zebrafish (Danio rerio) larvae at 5 dpf using an in-house custom-built behavioral analysis system. All assays followed standard protocols as previously described.
(§13) Zebrafish were housed and bred in the AquaCore facility, Monash University, according to standard procedures. Larvae were maintained in E3 media (5mM NaCl, 0.17mM KCl, 0.33 mM CaCl2, 0.33 mM MgSO4, supplemented with 1 x 10 – 5% methylene blue as antimycotic).
(§14) Digital video processing and animal tracking was performed using Ethovision XT ver.16 (Noldus Inc., Wageningen, The Netherlands) using a standardized method as described before.
(§15) All data was averaged across replicate larvae for each treatment and control, respectively, and presented as mean ± SEM. Cumulative distance traveled by larvae was measured by summing the incremental distance moved by each larva between frames of video files. Statistical analysis and data presentation was performed using Prism 8 (GraphPad Software Inc., San Diego, CA, USA). Data sets were tested for outliers and normality of distribution, followed by either one-way or two-way ANOVA testing for significance. […] Where time point data was collected significance was compared for each time domain with that of vehicle controls. Significance was universally set to p < 0.05.

[5] = tested on: C. neoformans var. grubii strain ATCC 208821; experiment: Antimicrobial growth inhibition (CO-ADD), C. neoformans; assay type: cell-based; details: Cryptococcus neoformans, ATCC208821; var. grubii ATCC 208821; read-out: MIC C. neoformans
[6] = tested on: zebrafish (Danio rerio) larvae at 5 dpf; experiment: Zebrafish larvae simulated predator response (SPR) bioassay; assay type: in vivo; details: 100 nM
Description: as §11, §12, §13, §14, §15

[7] = tested on: zebrafish (Danio rerio) larvae at 5 dpf; experiment: Zebrafish Larval Photo-motor Response (LPR) bioassay; assay type: in vivo; details: 1 nM, 10 nM and 100 nM
Description: as §11
Basal behavioral analysis was conducted on zebrafish (Danio rerio) larvae at 5 dpf using an in-house custom-built behavioral analysis system. […]
All data was averaged across replicate larvae for each treatment and control, respectively, and presented as mean ± SEM. Cumulative distance traveled by larvae was measured by summing the incremental distance moved by each larva between frames of video files. […]

[8] = tested on: Mediterranean fish species Blennius sphinx; design: method as in PMID 15018063; details: cited from earlier work
[9] = 32 µg/mL, duplicate (n = 2) values
[10] = read-out: % inhibition MRSA, 32 µg/mL, duplicate (n = 2) values
[11] = ATCC19606, read-out: % inhibition A. baumannii, 32 µg/mL, duplicate (n = 2) values
[12] = ATCC19606, 32 µg/mL, duplicate (n = 2) values, read-out: % inhibition A. baumannii

| SMILES | % inhibition MRSA [1, 9] | MIC [1] | % inhibition A. baumannii ([2]; duplicate (n = 2) values) | MIC [2] | % inhibition P. aeruginosa ([3]; duplicate (n = 2) values) | MIC [3] | MIC [5] | other results |
| --- | --- | --- | --- | --- | --- | --- | --- | --- |
| COC1(OC)C(Br)=CC(O)(CC(N)=O)C=C1Br [Compound 6, 2-(3,5-dibromo-1-hydroxy-4,4-dimethoxycyclohexa-2,5-dien-1-yl)acetamide] | 3.3% and 7.0% | > 32 µg/mL | 2.3% and 9.7% | > 32 µg/mL | 1.1% and 9.7% | > 32 µg/mL | > 32 µg/mL | Spontaneous swimming, total distance moved vs vehicle control ([4]; 10 nM, p < 0.0001): hyperactivity; Spontaneous swimming, total distance moved ([4]; 100 nM, p < 0.0001): curtailed |
| COC1=C(Br)[C@H](O)[C@@]2(C=C1Br)CC(C(=O)NCCCOc1c(Br)cc(CCN)cc1Br)=NO2 [Compound 11, araplysillin I] | 5.7% | > 32 µg/mL | 3.4% and 7.3% | > 32 µg/mL | 0.3% and 8.0% | > 32 µg/mL | > 32 µg/mL | inhibition at 32 µg/mL [1, 10]: 11.3% |
| COC1=C(Br)[C@H](O)[C@@]2(C=C1Br)CC(C(=O)NCCCCCNC(=O)C1=NO[C@]3(C=C(Br)C(OC)=C(Br)[C@@H]3O)C1)=NO2 [Compound 3, homoaerothionin] | – | > 32 µg/mL | 9.8% | > 32 µg/mL | 10.4% and 2.2% | > 32 µg/mL | > 32 µg/mL | inhibition at 32 µg/mL [2, 11]: 13.8%; Spontaneous swimming, profile across concentrations ([4]; 1 nM, 10 nM, 100 nM): dose dependent hypoactivity effect; Spontaneous swimming, total distance moved vs vehicle control ([4]; 1 nM, 5 dpf larvae, p < 0.0001): significant hyperactivity; Spontaneous swimming, mean distance moved [4]: reduced mean distance moved; SPR, total distance moved vs vehicle control ([6]; p < 0.0001): Clear hyperactivity |
| COC1=C(Br)[C@H](O)[C@@]2(C=C1Br)CC(C(=O)NCCCCNC(=O)C1=NO[C@]3(C=C(Br)C(OC)=C(Br)[C@@H]3O)C1)=NO2 [Compound 2, aerothionin] | −1.5% and 6.1% | > 32 µg/mL | – | > 32 µg/mL | – | > 32 µg/mL | > 32 µg/mL | Spontaneous swimming, profile across concentrations ([4]; 1 nM, 10 nM, 100 nM): biphasic distribution of mean movement data; Spontaneous swimming, total distance moved vs vehicle control ([4]; all three concentrations (1 nM, 10 nM, 100 nM)): no significant difference to the vehicle control; SPR, profile across concentrations ([6]; 1 nM, 10 nM): biphasic distribution of mean movement data; LPR, mean area under the curve across light and dark cycles vs vehicle control [7]: biphasic distribution of mean movement data; feeding deterrent activity, Blennius sphinx [8]: significant feeding deterrent activity |
| COC1=C(Br)[C@H](O)[C@@]2(C=C1Br)CC(C(=O)NCCCOc1c(Br)cc(CCNC(=O)C3=NO[C@]4(C=C(Br)C(OC)=C(Br)[C@@H]4O)C3)cc1Br)=NO2 [Compound 5, 11,17-deoxyfistularin-3] | 19.8% | > 32 µg/mL | 8.5% | > 32 µg/mL | 7.2% | > 32 µg/mL | > 32 µg/mL | inhibition at 32 µg/mL [1, 10]: 10%; inhibition at 32 µg/mL [2, 11]: 10.2%; inhibition at 32 µg/mL ([3]; ATCC27853, read-out: % inhibition P. aeruginosa, 32 µg/mL, duplicate (n = 2) values): 4.3% |
| NC(=O)Cc1c(O)cc(Br)c(O)c1Br [Compound 9, subereaphenol A] | – | > 32 µg/mL | 18.5% | > 32 µg/mL | – | > 32 µg/mL | > 32 µg/mL | inhibition at 32 µg/mL [2, 12]: 10.8%; Spontaneous swimming, total distance moved vs vehicle control ([4]; 1 nM, 5 dpf larvae, p < 0.0001): significant hyperactivity; Spontaneous swimming, mean distance moved [4]: reduced mean distance moved |
| COc1c(Br)cc(CC#N)c(O)c1Br [Compound 8, 2-(3,5-dibromo-2-hydroxy-4-methoxyphenyl)acetonitrile] | 8.5% | > 32 µg/mL | 7.5% | > 32 µg/mL | 6.8% | > 32 µg/mL | > 32 µg/mL | inhibition at 32 µg/mL ([1]; 32 µg/mL, duplicate (n = 2) values, read-out: % inhibition MRSA): 7.6%; inhibition at 32 µg/mL [2, 12]: 11%; inhibition at 32 µg/mL ([3]; ATCC27853, 32 µg/mL, duplicate (n = 2) values, read-out: % inhibition P. aeruginosa): 11.2% |

Source: PMC9503778, “Targeted Isolation of Antibiotic Brominated Alkaloids from the Marine Sponge Pseudoceratina durissima Using Virtual Screening and Molecular Networking” (Marine Drugs, 2022)
